Measurements: patent US20240099989A1, “AGENT FOR PREVENTING OR IMPROVING PERIPHERAL NEUROPATHY” (KINKI UNIVERSITY, priority 2021, published 2024)
Entries after “also recorded” stand apart in the source; their conditions may differ.

What was measured:
[1] = test system: Peripheral Neuropathy in a Mouse Caused by Oxaliplatin; assay: Cold plate test (10° C.), peripheral neuropathy caused by oxaliplatin; type: in vivo, Balb/c mice
Description: The preventive action of xylitol on hyperesthesia that occurs when an anticancer drug, oxaliplatin, was administered was examined. […] Xylitol was orally administered to a mouse simultaneously with the administration of oxaliplatin, and the following tests (cold plate test and von Frey test) were performed. Oxaliplatin is an anticancer drug classified as a platinum-containing drug. In all of the examples described below, a dosage (administered amount) (mg/kg) refers to the weight of the administered substance per kg body weight of the mouse.
Six to seven-week-old female Balb/c mice were used for the tests. All the mice were acclimated for seven days after arrival. Then, the mice were grouped into the following four groups: a control group, a group receiving oxaliplatin, and two groups receiving oxaliplatin and two different doses of xylitol (groups receiving oxaliplatin+xylitol). Each group consisted of nine mice.
On Day 8 of acclimation, the mice in the group receiving oxaliplatin and the groups receiving oxaliplatin+xylitol were intraperitoneally administered with oxaliplatin at a dose of 6 mg/kg. This day was designated as Day 0 of administration. Thereafter, these mice were intraperitoneally administered with oxaliplatin at a daily dose of 6 mg/kg on Day 7 and Day 14.
The mice in a first group receiving oxaliplatin and xylitol were orally administered with xylitol at a dose of 1 mg/kg daily from Day 0. The mice in a second group receiving oxaliplatin and xylitol were orally administered with xylitol at a dose of 5 mg/kg daily from Day 0.
A cold plate test was performed to examine the effect of xylitol on paresthesia that is caused by a low temperature stimulus. The mice in the four groups described in (1) of the present example (Example 1) were placed on a cold plate set at 10° C., and withdrawal response time (latent time) was measured. It is presumed that a shorter latent time reflects a greater degree of shunning the low temperature stimulus by the cold plate.
Six to seven-week-old female Balb/c mice were used for the tests as with Example 1. All the mice were acclimated for seven days after arrival. Then, the mice were grouped into the following five groups: a control group, a group receiving only oxaliplatin, and three groups receiving oxaliplatin and three different doses of xylitol. Each group consisted of seven mice.
On Day 8 of acclimation, the mice in the groups other than the control group were intraperitoneally administered with oxaliplatin at a dose of 6 mg/kg. This day was designated as the first day of the administration (Day 0). Thereafter, these mice were intraperitoneally administered with oxaliplatin at the same dose on Day 7 and Day 14 for a total of 3 doses.
The mice in a first group receiving oxaliplatin+xylitol were orally administered with xylitol at a dose of 5 mg/kg daily from Day 6 of administration. The mice in a second group receiving oxaliplatin+xylitol were orally administered with xylitol at a dose of 25 mg/kg daily from Day 6 of administration. The mice in a third group receiving oxaliplatin+xylitol were orally administered with xylitol at a dose of 100 mg/kg daily from Day 6 of administration. In this context, “Day 6 of administration” means that the number of days after administration is 6. The same applies hereinafter.
A test was performed on the mice in the five groups described in (1) of the present example (Example 2) to examine the effect of xylitol on paresthesia that is caused by a low temperature stimulus. The mice in respective groups were placed on a cold plate set at 10° C., and withdrawal response time (latent time) was measured. It is presumed that a shorter latent time reflects a greater degree of shunning the low temperature stimulus by the cold plate.
Six to seven-week-old female Balb/c mice were used for the tests as with Example 1. All the mice were acclimated for seven days after arrival. […]

[2] = test system: Peripheral Neuropathy in a Mouse Caused by Bortezomib; type: in vivo, Balb/c mice; settings: 1 mg/kg bortezomib + 100 mg/kg orally daily from Day 6 (therapy); from Day 12 onwards
From the text: Six to seven-week-old female Balb/c mice were used for the tests. All the mice were acclimated for seven days after arrival. Then, the mice were grouped into the following four groups: a control group, a group receiving bortezomib, a group receiving xylitol, and a group receiving bortezomib and xylitol (a group receiving bortezomib+xylitol). Each group consisted of five mice.
On Day 8 of acclimation, the mice in the group receiving bortezomib and the group receiving bortezomib+xylitol were intraperitoneally administered with bortezomib at a dose of 1 mg/kg. This day was designated as Day 0 of administration. Thereafter, these mice were intraperitoneally administered with bortezomib at a daily dose of 1 mg/kg on Day 7 and Day 14.
The mice in the group receiving xylitol and the group receiving bortezomib+xylitol were orally administered with xylitol at a dose of 5 mg/kg daily from Day 0.
The mice in the four groups described in (10) of the present example (Example 1) were placed in a cage, and the avoidance response frequency (score) was measured by pressing a filament with a bending force of 0.16 g against the back of the hind paw.
Six to seven-week-old female Balb/c mice were used for the tests as with Example 1. All the mice were acclimated for seven days after arrival. Then, the mice were grouped into the following four groups: a control group, a group receiving bortezomib, a group receiving xylitol, and a group receiving bortezomib and xylitol (a group receiving bortezomib+xylitol). Each group consisted of five mice. […]
For the mice in the four groups described in (12) of the present example (Example 2), the avoidance response frequency (score) was measured by pressing a filament with a bending force of 0.16 g against the back of the hind paw. […]
The mice in the four groups described in (10) of the present example (Example 3) were placed in a cage, and the avoidance response frequency (score) was measured by pressing a filament with a bending force of 0.16 g against the back of the hind paw. […]

[3] = 6 mg/kg oxaliplatin + 5 mg/kg test substance orally daily from Day 0 (prevention)
[4] = 6 mg/kg oxaliplatin + 100 mg/kg test substance orally daily from Day 6 (therapy), time course after Day 6

OC[C@@H](O)[C@H](O)CO [D-threitol]
withdrawal response time (latent time) [1, 3]: approximately similar to that of the control group | withdrawal response time (latent time) [1, 4]: tended to become longer from Day 6 onwards; also recorded: significantly longer withdrawal response time | avoidance response score [2]: maintained a score clearly lower than that of the group receiving bortezomib

OC[C@H](O)[C@H](O)[C@H](O)[C@@H](O)CO [L-talitol]
withdrawal response time (latent time) [1, 3]: almost the same data; also recorded: approximately similar to that of the control group | withdrawal response time (latent time) [1, 4]: tended to become longer from Day 9 onwards; also recorded: significantly longer withdrawal response time | avoidance response score [2]: maintained a score clearly lower than that of the group receiving bortezomib

OC[C@@H](O)[C@H](O)[C@@H](O)CO [xylitol]
withdrawal response time (latent time) ([1]; 6 mg/kg oxaliplatin + 1 mg/kg test substance orally daily from Day 0 (prevention)): approximately similar to that of the control group | withdrawal response time (latent time) ([1]; 6 mg/kg oxaliplatin + 5 mg/kg orally daily from Day 6, on Day 10, vs group receiving 6 mg/kg oxaliplatin): significantly longer withdrawal response time | withdrawal response time (latent time) ([1]; 6 mg/kg oxaliplatin + 5 mg/kg orally daily from Day 6, on Day 14 and Day 17, vs group receiving 6 mg/kg oxaliplatin): no significant difference | withdrawal response time (latent time) ([1]; 6 mg/kg oxaliplatin + 5 mg/kg orally daily from Day 6, on Day 21, vs group receiving 6 mg/kg oxaliplatin): significantly longer withdrawal response time | withdrawal response time (latent time) [1, 3]: approximately similar to that of the control group | withdrawal response time (latent time) ([1]; 6 mg/kg oxaliplatin + 5 mg/kg test substance orally daily from Day 6 (therapy), time course after Day 6): tended to become longer from Day 6 onwards; also recorded: significantly longer withdrawal response time | withdrawal response time (latent time) ([1]; 6 mg/kg oxaliplatin + 25 mg/kg orally daily from Day 6, on Day 10, vs group receiving 6 mg/kg oxaliplatin): significantly longer withdrawal response time | withdrawal response time (latent time) ([1]; 6 mg/kg oxaliplatin + 25 mg/kg test substance orally daily from Day 6 (therapy), time course after Day 6): tended to become longer from Day 6 onwards; also recorded: increase in the withdrawal response time; also recorded: significantly longer withdrawal response time | withdrawal response time (latent time) ([1]; 6 mg/kg oxaliplatin + 100 mg/kg orally daily from Day 6, on Day 10, vs group receiving 6 mg/kg oxaliplatin): significantly longer withdrawal response time | avoidance response score [2]: maintained a score clearly lower than that of the group receiving bortezomib
